Our source for the IC50, Activity and selectivity ratio values is ChEMBL document CHEMBL4304799, “Primaquine homodimers as potential antiplasmodial and anticancer agents” (Bioorg Med Chem Lett, 2019).

One data set concerns MCF7. Put plainly: Antiproliferative activity against human MCF7 cells measured after 72 hrs by MTT assay. Format: functional, cell-based. The following applies: MCF7, 72 h. (Tetrazolium assays rely on reduction of a dye to a coloured formazan, in cell work by metabolically active cells.)
For data set [1], the system named is Plasmodium berghei. Put plainly: Antiplasmodial activity against liver stage luciferase expressing Plasmodium berghei sporozoites infected in human Huh7 cells preincubated with host cells for 1 hr followed by plasmodium infection. In kind it is functional, organism-based. The conditions noted are these: Huh-7.
A further data set relates to HEK293. Put plainly: Antiproliferative activity against human HEK293 cells measured after 72 hrs by MTT assay. In kind it is cell-based. The following applies: HEK293, 72 h.
Data set [2] has as its system Plasmodium berghei. Briefly: Antiplasmodial activity against liver stage luciferase expressing Plasmodium berghei sporozoites infected in human Huh7 cells preincubated with host cells for 1 hr followed by plasmodium infection at 1 and 10 uM. In kind it is functional, organism-based.
In the next data set the test system is HCT-116. Briefly: Antiproliferative activity against human HCT116 cells measured after 72 hrs by MTT assay. Format: functional, cell-based. The conditions noted are these: HCT-116, 72 h.
Data set [3] has as its system Plasmodium falciparum. Put plainly: Antiplasmodial activity against asexual chloroquine resistant blood stage Plasmodium falciparum Dd2 measured as HRP2 levels after 3 days by ELISA. Format: functional, organism-based. The conditions noted are these: Dd2, 72 h. (An ELISA detects its analyte on a solid surface through an enzyme-linked reagent.)
The next data set concerns NCI-H460. Put plainly: Antiproliferative activity against human H460 cells measured after 72 hrs by MTT assay. In kind it is functional, cell-based. The conditions noted are these: NCI-H460, 72 h.
Data set [4] has as its system Plasmodium falciparum. Briefly: Antiplasmodial activity against asexual chloroquine sensitive blood stage Plasmodium falciparum 3D7 measured as HRP2 levels after 3 days by ELISA. Format: functional, organism-based. The following applies: 3D7, 72 h.
Data set [5] can be described thus: Selectivity index, ratio of IC50 for HEK293 cells to IC50 for human HCT116 cells. In kind it is toxicity. The conditions noted are these: HEK293 cells versus HCT116 cells, read-out: Ratio IC50.
Data set [6] can be described thus: Selectivity index, ratio of IC50 for HEK293 cells to IC50 for human H460 cells. The conditions noted are these: HEK293 cells versus H460 cells, read-out: Ratio IC50. Format: toxicity.
The nature of data set [7]: Selectivity index, ratio of IC50 for HEK293 cells to IC50 for human MCF7 cells. In kind it is toxicity. The following applies: HEK293 cells versus MCF7 cells, read-out: Ratio IC50.

As a reminder, the IC50 is the concentration that inhibits the measured activity by half.

Structures are written as SMILES. Calls of active or inactive are those of the source. The rule behind the calls is not given here. Where only a bound is given, the exact number is not on record here.

Turning to `COc1cc(NC(C)CCCNC(=O)/C=C/C(=O)NCCCC(C)Nc2cc(OC)cc3cccnc23)c2ncccc2c1` (centres undefined), the IC50 is 9300 nM in the data set on MCF7; 198 nM in the data set with Plasmodium berghei [1]; at least 100 µM in the data set on HEK293; at least 100 µM in the data set on HCT-116; above 27.7 µM in the data set on Plasmodium falciparum [3]; at least 100 µM in the data set with NCI-H460. Moreover, the concentration for half-maximal inhibition (IC50) with Plasmodium falciparum [4] is 14.6 µM. Also, the result with Plasmodium berghei [2] was Active.

Regarding `COc1cc(NC(C)CCCNC(=O)CCCCC(=O)NCCCC(C)Nc2cc(OC)cc3cccnc23)c2ncccc2c1` (centres undefined), the IC50 with MCF7 was 1780 nM; with HEK293 it was at least 100 µM; with HCT-116, 13.7 µM; in the data set with Plasmodium falciparum [3], above 27.7 µM; with NCI-H460 it was 2.49 µM; with Plasmodium falciparum [4], above 27.7 µM. In the data set with Plasmodium berghei [2], the outcome was Active. Moreover, the selectivity ratio in data set [5], in data set [6] and in data set [7] was 7.3 to 56 throughout.

Turning to `COc1cc(NC(C)CCCNC(=O)CCCCCCC(=O)NCCCC(C)Nc2cc(OC)cc3cccnc23)c2ncccc2c1` (centres undefined), the IC50 was 1850 nM with MCF7; at least 100 µM with HEK293; at least 100 µM in the data set on HCT-116; 12.7 µM with Plasmodium falciparum [3]; at least 100 µM in the data set with NCI-H460; 23.1 µM in the data set with Plasmodium falciparum [4]. Further, the outcome in the data set on Plasmodium berghei [2] was Active.

Take `COc1cc(NC(C)CCCN)c2ncccc2c1` (centres undefined) [PRIMAQUINE PHOSPHATE]: the IC50 in the data set on MCF7 was determined as 8730 nM; in the data set with HEK293, 11 µM; with HCT-116, 14 µM; with Plasmodium falciparum [3], 1.9 µM; in the data set on NCI-H460 it was 19.8 µM; with Plasmodium falciparum [4] it was 1.3 µM. Also, the outcome in the data set on Plasmodium berghei [2] was Active.

Turning to `COc1cc(NC(C)CCCNC(=O)CCC(=O)NCCCC(C)Nc2cc(OC)cc3cccnc23)c2ncccc2c1` (centres undefined), the IC50 in the data set on MCF7 is 2820 nM; in the data set on Plasmodium berghei [1], 726 nM; with HEK293, 2.25 µM; with HCT-116 it was 11.3 µM; with Plasmodium falciparum [3] it was above 27.7 µM; with NCI-H460 it was 18.5 µM. Further, in the data set with Plasmodium falciparum [4], half-maximal inhibition (IC50) was put at 17.2 µM. Also, the outcome in the data set with Plasmodium berghei [2] was Active.

Take `COc1cccc2c1C(=O)c1c(O)c3c(c(O)c1C2=O)C[C@@](O)(C(=O)CO)C[C@@H]3O[C@H]1C[C@H](N)[C@H](O)[C@H](C)O1` [DOXORUBICIN]: the IC50 stood at 10 nM in the data set with MCF7, 0.018 µM with HEK293, 0.01 µM in the data set with HCT-116 and 0.003 µM with NCI-H460.

Consider `COc1cc(NC(C)CCCNC(=O)/C=C\C(=O)NCCCC(C)Nc2cc(OC)cc3cccnc23)c2ncccc2c1` (centres undefined), for which the IC50 in the data set with MCF7 stood at 3140 nM; with Plasmodium berghei [1] it was 358 nM; in the data set on HEK293 it was 17.5 µM; in the data set on HCT-116 it was 9.19 µM; in the data set with NCI-H460, 14.1 µM. The outcome in the data set with Plasmodium berghei [2] was Active. The selectivity ratio in data set [5], in data set [6] and in data set [7] was 1.6 to 31 in each case.

Take `COc1cc(NC(C)CCCNC(=O)/C=C(\C)C(=O)NCCCC(C)Nc2cc(OC)cc3cccnc23)c2ncccc2c1` (centres undefined): the IC50 in the data set with MCF7 was determined as 2360 nM; in the data set with HEK293, 10 µM; in the data set on HCT-116 it was 4.31 µM; in the data set with NCI-H460, 1.63 µM.

Take `COc1cc(NC(C)CCCNC(=O)CCCCCC(=O)NCCCC(C)Nc2cc(OC)cc3cccnc23)c2ncccc2c1` (centres undefined): the IC50 in the data set with MCF7 amounted to 3040 nM; in the data set with HEK293 it was 94.9 µM; in the data set with HCT-116, 26.1 µM; in the data set with NCI-H460, 26.7 µM. The selectivity ratio in data set [5], in data set [6] and in [7] was 1.6 to 31 each time.

`COc1cc(NC(C)CCCNC(=O)CCCC(=O)NCCCC(C)Nc2cc(OC)cc3cccnc23)c2ncccc2c1` (centres undefined): the IC50 in the data set with MCF7 is 3370 nM; in the data set on HEK293 it was 26.4 µM; in the data set with HCT-116 it was 16.9 µM; with Plasmodium falciparum [3], above 27.7 µM; in the data set on NCI-H460, 10.3 µM; in the data set on Plasmodium falciparum [4] it was 16.5 µM. The outcome in the data set on Plasmodium berghei [2] was Active. Further, the selectivity ratio in data set [5], in data set [6] and in data set [7] was 1.6 to 31 in each case.
